Experimental data: patent US9125913B2, “Bcl-2-selective apoptosis-inducing agents for the treatment of cancer and immune diseases” (AbbVie Inc., priority 2008, dated 2015)

tested on: GST-Bcl-2; experiment: TR-FRET binding assay, Bcl-2; details: TR-FRET Ki values
How it was run: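 Compounds serially diluted in DMSO from 50 μM (2× starting concentration, 10% DMSO), mixed with GST-tagged protein, F-Bak peptide probe and Tb-labeled antibody, incubated 3 h at room temperature.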

SMILES	Binding selectivity ratio (Bcl-XL Ki/Bcl-2 Ki)
CC1(C)CCC(CN2CCN(c3ccc(C(=O)NS(=O)(=O)c4ccc(NCC5CCOCC5)c(S(=O)(=O)C(F)(F)F)c4)c(Oc4cccc5[nH]ccc45)c3)CC2)=C(c2ccc(Cl)cc2)C1 [EXAMPLE 303, 4-(4-{[2-(4-chlorophenyl)-4,4-dimethylcyclohex-1-en-1-yl]methyl}piperazin-1-yl)-2-(1H-indol-4-yloxy)-N-({4-[(tetrahydro-2H-pyran-4-ylmethyl)amino]-3-[(trifluoromethyl)sulfonyl]phenyl}sulfonyl)benzamide]	>445.9
CC1(C)CCC(CN2CCN(c3ccc(C(=O)NS(=O)(=O)c4ccc(NCC5CCCCC5)c([N+](=O)[O-])c4)c(Oc4ccc5[nH]ccc5c4)c3)CC2)=C(c2ccc(Cl)cc2)C1 [EXAMPLE 259, 4-(4-{[2-(4-chlorophenyl)-4,4-dimethylcyclohex-1-en-1-yl]methyl}piperazin-1-yl)-N-({4-[(cyclohexylmethyl)amino]-3-nitrophenyl}sulfonyl)-2-(1H-indol-5-yloxy)benzamide]	>330.9
CC1(C)CCC(CN2CCN(c3ccc(C(=O)NS(=O)(=O)c4ccc(NCCC#N)c([N+](=O)[O-])c4)c(Oc4ccc5[nH]ccc5c4)c3)CC2)=C(c2ccc(Cl)cc2)C1 [EXAMPLE 319, 4-(4-{[2-(4-chlorophenyl)-4,4-dimethylcyclohex-1-en-1-yl]methyl}piperazin-1-yl)-N-({4-[(2-cyanoethyl)amino]-3-nitrophenyl}sulfonyl)-2-(1H-indol-5-yloxy)benzamide]	503.4
CC1(C)CCC(CN2CCN(c3ccc(C(=O)NS(=O)(=O)c4ccc(NCC5CCOCC5)c(S(=O)(=O)C(F)(F)F)c4)c(Oc4ccc5[nH]ccc5c4)c3)CC2)=C(c2ccc(Cl)cc2)C1 [EXAMPLE 304, 4-(4-{[2-(4-chlorophenyl)-4,4-dimethylcyclohex-1-en-1-yl]methyl}piperazin-1-yl)-2-(1H-indol-5-yloxy)-N-({4-[(tetrahydro-2H-pyran-4-ylmethyl)amino]-3-[(trifluoromethyl)sulfonyl]phenyl}sulfonyl)benzamide]	>973.5
CC1(C)CCC(CN2CCN(c3ccc(C(=O)NS(=O)(=O)c4ccc(NCCN5CCOCC5)c(S(=O)(=O)C(F)(F)F)c4)c(Oc4ccc5[nH]ccc5c4)c3)CC2)=C(c2ccc(Cl)cc2)C1 [EXAMPLE 351, 4-(4-{[2-(4-chlorophenyl)-4,4-dimethylcyclohex-1-en-1-yl]methyl}piperazin-1-yl)-2-(1H-indol-5-yloxy)-N-({4-[(2-morpholin-4-ylethyl)amino]-3-[(trifluoromethyl)sulfonyl]phenyl}sulfonyl)benzamide]	>418.7
C[C@@H](c1ccccc1-c1ccc(Cl)cc1)N1CCN(c2ccc(C(=O)NS(=O)(=O)c3ccc(NCC4CCOCC4)c([N+](=O)[O-])c3)c(Oc3cccc4[nH]ccc34)c2)CC1 [EXAMPLE 256, 4-{4-[(1S)-1-(4′-chloro-1,1′-biphenyl-2-yl)ethyl]piperazin-1-yl}-2-(1H-indol-4-yloxy)-N-({3-nitro-4-[(tetrahydro-2H-pyran-4-ylmethyl)amino]phenyl}sulfonyl)benzamide]	>5519.8
CC1(C)CCC(CN2CCN(c3ccc(C(=O)NS(=O)(=O)c4ccc(NN5CCOCC5)c([N+](=O)[O-])c4)c(Oc4cccc5[nH]ccc45)c3)CC2)=C(c2ccc(Cl)cc2)C1 [EXAMPLE 262, 4-(4-{[2-(4-chlorophenyl)-4,4-dimethylcyclohex-1-en-1-yl]methyl}piperazin-1-yl)-2-(1H-indol-4-yloxy)-N-{[4-(morpholin-4-ylamino)-3-nitrophenyl]sulfonyl}benzamide]	219.9
CC1(C)CCC(CN2CCN(c3ccc(C(=O)NS(=O)(=O)c4cnc(OCC5(F)CCOCC5)c(Cl)c4)c(Oc4cccc5[nH]ccc45)c3)CC2)=C(c2ccc(Cl)cc2)C1 [EXAMPLE 405, N-({5-chloro-6-[(4-fluorotetrahydro-2H-pyran-4-yl)methoxy]pyridin-3-yl}sulfonyl)-4-(4-{[2-(4-chlorophenyl)-4,4-dimethylcyclohex-1-en-1-yl]methyl}piperazin-1-yl)-2-(1H-indol-4-yloxy)benzamide]	1395
CC1(C)CCC(CN2CCN(c3ccc(C(=O)NS(=O)(=O)c4ccc(NCC5(O)CCCCC5)c([N+](=O)[O-])c4)c(Oc4ccc5[nH]ccc5c4)c3)CC2)=C(c2ccc(Cl)cc2)C1 [EXAMPLE 238, 4-(4-{[2-(4-chlorophenyl)-4,4-dimethylcyclohex-1-en-1-yl]methyl}piperazin-1-yl)-N-[(4-{[(1-hydroxycyclohexyl)methyl]amino}-3-nitrophenyl)sulfonyl]-2-(1H-indol-5-yloxy)benzamide]	>1534.3
CC1(C)CCC(CN2CCN(c3ccc(C(=O)NS(=O)(=O)c4cnc(OCC5(F)CCOCC5)c(Cl)c4)c(Oc4cccc5[nH]ncc45)c3)CC2)=C(c2ccc(Cl)cc2)C1 [EXAMPLE 404, N-({5-chloro-6-[(4-fluorotetrahydro-2H-pyran-4-yl)methoxy]pyridin-3-yl}sulfonyl)-4-(4-{[2-(4-chlorophenyl)-4,4-dimethylcyclohex-1-en-1-yl]methyl}piperazin-1-yl)-2-(1H-indazol-4-yloxy)benzamide]	2423
CC1(C)CCC(CN2CCN(c3ccc(C(=O)NS(=O)(=O)c4ccc(CCC5CCOCC5)c([N+](=O)[O-])c4)c(Oc4ccc5[nH]ccc5c4)c3)CC2)=C(c2ccc(Cl)cc2)C1 [EXAMPLE 296, 4-(4-{[2-(4-chlorophenyl)-4,4-dimethylcyclohex-1-en-1-yl]methyl}piperazin-1-yl)-2-(1H-indol-5-yloxy)-N-{[3-nitro-4-(2-tetrahydro-2H-pyran-4-ylethyl)phenyl]sulfonyl}benzamide]	>1014.4
CC1(C)CCC(CN2CCN(c3ccc(C(=O)NS(=O)(=O)c4ccc(NCC5(N6CCOCC6)CCCCC5)c([N+](=O)[O-])c4)c(Oc4ccc5[nH]ccc5c4)c3)CC2)=C(c2ccc(Cl)cc2)C1 [EXAMPLE 229, 4-(4-{[2-(4-chlorophenyl)-4,4-dimethylcyclohex-1-en-1-yl]methyl}piperazin-1-yl)-2-(1H-indol-5-yloxy)-N-[(4-{[(1-morpholin-4-ylcyclohexyl)methyl]amino}-3-nitrophenyl)sulfonyl]benzamide]	>13.4
CC1(C)CCC(CN2CCN(c3ccc(C(=O)NS(=O)(=O)c4ccc(NCC5CCOCC5)c([N+](=O)[O-])c4)c(Oc4ccc5[nH]ccc5c4)c3)CC2CO)=C(c2ccc(Cl)cc2)C1 (centres unmarked) [EXAMPLE 236, 4-[4-{[2-(4-chlorophenyl)-4,4-dimethylcyclohex-1-en-1-yl]methyl}-3-(hydroxymethyl)piperazin-1-yl]-2-(1H-indol-5-yloxy)-N-({3-nitro-4-[(tetrahydro-2H-pyran-4-ylmethyl)amino]phenyl}sulfonyl)benzamide]	>1787.6
O=C(NS(=O)(=O)c1ccccc1OCCN1CCCCC1)c1ccc(N2CCN(Cc3ccccc3-c3ccc(Cl)cc3)CC2)cc1Oc1ccccc1 [Example 32, 4-{4-[(4′-chloro-1,1′-biphenyl-2-yl)methyl]piperazin-1-yl}-2-phenoxy-N-{[2-(2-piperidin-1-ylethoxy)phenyl]sulfonyl}benzamide]	>10.8
O=C(NS(=O)(=O)c1ccc(N2C(=O)C3CCC3C2=O)cc1)c1ccc(N2CCN(Cc3ccccc3-c3ccc(Cl)cc3)CC2)cc1Oc1ccccc1 (centres unmarked) [Example 28, 4-{4-[(4′-chloro-1,1′-biphenyl-2-yl)methyl]piperazin-1-yl}-N-{[4-(2,4-dioxo-3-azabicyclo[3.2.0]hept-3-yl)phenyl]sulfonyl}-2-phenoxybenzamide]	>19.6
O=C(NS(=O)(=O)c1ccc(NCC2CCOCC2)c([N+](=O)[O-])c1)c1ccc(N2CCN(Cc3cc(OCCN4CCOCC4)ccc3-c3ccc(Cl)cc3)CC2)cc1Oc1ccc2[nH]ccc2c1 [Example 127, 4-(4-{[4′-chloro-4-(2-morpholin-4-ylethoxy)-1,1′-biphenyl-2-yl]methyl}piperazin-1-yl)-2-(1H-indol-5-yloxy)-N-({3-nitro-4-[(tetrahydro-2H-pyran-4-ylmethyl)amino]phenyl}sulfonyl)benzamide]	>1437.9
CC1(C)CCC(CN2CCN(c3ccc(C(=O)NS(=O)(=O)c4ccc(N5CCOCC5)c([N+](=O)[O-])c4)c(Oc4ccc5[nH]ccc5c4)c3)CC2)=C(c2ccc(Cl)cc2)C1 [EXAMPLE 270, 4-(4-{[2-(4-chlorophenyl)-4,4-dimethylcyclohex-1-en-1-yl]methyl}piperazin-1-yl)-2-(1H-indol-5-yloxy)-N-[(4-morpholin-4-yl-3-nitrophenyl)sulfonyl]benzamide]	>199.1
CC1(C)CCC(CN2CCN(c3ccc(C(=O)NS(=O)(=O)c4ccc(NCC5CCOCC5)c([N+](=O)[O-])c4)c(Oc4cccc5c4CCNC5)c3)CC2)=C(c2ccc(Cl)cc2)C1 [EXAMPLE 399, 4-(4-{[2-(4-chlorophenyl)-4,4-dimethylcyclohex-1-en-1-yl]methyl}piperazin-1-yl)-N-({3-nitro-4-[(tetrahydro-2H-pyran-4-ylmethyl)amino]phenyl}sulfonyl)-2-(1,2,3,4-tetrahydroisoquinolin-5-yloxy)benzamide]	>225764.520763495
CN1CCN(CCNc2ccc(S(=O)(=O)NC(=O)c3ccc(N4CCN(Cc5ccccc5-c5ccc(Cl)cc5)CC4)cc3Oc3ccccc3)cc2[N+](=O)[O-])CC1 [Example 85, 4-{4-[(4′-chloro-1,1′-biphenyl-2-yl)methyl]piperazin-1-yl}-N-[(4-{[2-(4-methylpiperazin-1-yl)ethyl]amino}-3-nitrophenyl)sulfonyl]-2-phenoxybenzamide]	48.8
CC1(C)CCC(CN2CCN(c3ccc(C(=O)NS(=O)(=O)c4ccc(NCC(F)(F)F)c([N+](=O)[O-])c4)c(Oc4ccc5[nH]ccc5c4)c3)CC2)=C(c2ccc(Cl)cc2)C1 [EXAMPLE 344, 4-(4-{[2-(4-chlorophenyl)-4,4-dimethylcyclohex-1-en-1-yl]methyl}piperazin-1-yl)-2-(1H-indol-5-yloxy)-N-({3-nitro-4-[(2,2,2-trifluoroethyl)amino]phenyl}sulfonyl)benzamide]	1576.9
